The record followed here is PubChem BioAssay (NCI).

Among the test systems are CAKI-1 renal; HCC-2998 colon; HOP-92 NSCLC; KM12 colon; NCI-H23 lung; RXF 393 renal; SK-OV-3 ovarian; SN12C renal; TK-10 renal; HOP-62 NSCLC.
Test in all cases: DTP human tumour cell line panel, 48 h

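How tested: cells in 96-well plates exposed to compound for 48 hours at five concentrations. At the GI50, growth is halved. TGI denotes the concentration required for complete inhibition of growth.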

As a reminder, the TGI is the concentration giving total growth inhibition. The low end stands for more potent growth arrest, the high end for less potent growth arrest. `CC[C@@]12N=C(N(C)C)C[C@]1(O)ON=C2C`: the TGI in the test with CAKI-1 renal, in the test on HCC-2998 colon, with HOP-92 NSCLC, in the test with KM12 colon, in the test with NCI-H23 lung and with RXF 393 renal was greater than 100 µM each time. The TGI in the test on SK-OV-3 ovarian, in the test with SN12C renal and in the test with TK-10 renal was greater than 100 µM each time.

As for `CCN1CCN=c2c3cc(OC)ccc3n3cnc4ccc1c2c43`, the TGI in the test on HCC-2998 colon was 0.94 µM; with HOP-62 NSCLC, 0.924 µM; in the test with HOP-92 NSCLC it was 6.32 µM; in the test on KM12 colon it was 1.21 µM; with NCI-H23 lung, 0.985 µM; in the test with RXF 393 renal, 1.05 µM. The TGI is 1.79 µM in the test with SK-OV-3 ovarian, 0.433 µM in the test with SN12C renal and 6.66 µM in the test with TK-10 renal.

Take `COc1ccc2oc(-c3cccnc3)cc(=O)c2c1`: the concentration for total growth inhibition (TGI) in the test with CAKI-1 renal, in the test with HCC-2998 colon, in the test with HOP-62 NSCLC, in the test on HOP-92 NSCLC, with KM12 colon and in the test on NCI-H23 lung was greater than 100 µM each time. Further, the TGI with RXF 393 renal and with SN12C renal was greater than 100 µM each time.

For orientation: GI50 means the concentration that inhibits growth by half. For the compound `CC(C)=CCc1cc(O)cc2c1OC(C=C(C)C)C1=C2C(=O)C2=C(NCCS2(=O)=O)C1=O` (centres undefined), the GI50 in the test on HCC-2998 colon was 2.63 µM; in the test on HOP-62 NSCLC it was 3.01 µM; in the test on HOP-92 NSCLC it was 5.73 µM; in the test with KM12 colon, 4.29 µM; in the test with NCI-H23 lung it was 1.91 µM; in the test with RXF 393 renal, 2.15 µM. Besides, the GI50 was 3.8 µM in the test on SK-OV-3 ovarian, 0.414 µM with SN12C renal and 5.51 µM in the test on TK-10 renal. In addition, the TGI in the test on HCC-2998 colon is 5.19 µM; in the test with HOP-62 NSCLC, 5.94 µM; in the test with HOP-92 NSCLC, 15.9 µM; in the test with KM12 colon, greater than 16.7 µM; in the test with NCI-H23 lung it was 6.53 µM; in the test on RXF 393 renal it was 4.7 µM. For the same compound, the total growth inhibition concentration (TGI) amounted to 10.4 µM with SK-OV-3 ovarian, 2.02 µM in the test with SN12C renal and 16.2 µM in the test with TK-10 renal.

Take `O=C(O)[C@H](NS(=O)(=O)c1ccc2ccccc2c1)c1ccccc1`: the TGI with CAKI-1 renal, with HCC-2998 colon, in the test with HOP-92 NSCLC, in the test on NCI-H23 lung, with RXF 393 renal and in the test on SK-OV-3 ovarian was greater than 100 µM each time. The compound also came in with a concentration for total growth inhibition (TGI) in the test on SN12C renal greater than 100 µM.

As to `COc1ccc(/C(=N\NC(=O)C(N)=O)C(c2ccc(OC)cc2)C2(O)C(=O)Nc3c(Cl)cccc32)cc1` (centres undefined), the TGI in the test on HCC-2998 colon, with HOP-62 NSCLC, with HOP-92 NSCLC, with KM12 colon, in the test on NCI-H23 lung and in the test with RXF 393 renal was greater than 100 µM throughout. Besides, the TGI with SN12C renal and in the test on TK-10 renal was greater than 100 µM throughout.

For the compound `CC1=CC(=O)[C@@H](O)[C@]2(C)[C@H]3[C@@]4(O)OC[C@]35[C@H]([C@@H](C)[C@H]4O)[C@@H](O)C(=O)O[C@@H]5C[C@@H]12`, the TGI is 5.3 µM with CAKI-1 renal; 2.51 µM in the test with HCC-2998 colon; 1.08 µM in the test on HOP-62 NSCLC; 2.51 µM in the test with HOP-92 NSCLC; 1.72 µM in the test on KM12 colon; 1.7 µM with NCI-H23 lung. The TGI is 4.46 µM with RXF 393 renal, greater than 20.5 µM in the test with SK-OV-3 ovarian and 7.76 µM in the test on TK-10 renal.

`CC1(C)OCCn2c1nc1c(N3CCOCC3)nc(-c3cnc(N)nc3)nc12`: the GI50 in the test with HCC-2998 colon is 0.412 µM; in the test on HOP-62 NSCLC it was 0.477 µM; in the test with HOP-92 NSCLC it was 0.141 µM; in the test on KM12 colon, 0.761 µM; with NCI-H23 lung, 0.484 µM; in the test with RXF 393 renal, 0.211 µM. The GI50 is 0.102 µM in the test on SK-OV-3 ovarian, 0.301 µM in the test with SN12C renal and 0.109 µM in the test with TK-10 renal. Moreover, the TGI in the test with HCC-2998 colon was greater than 100 µM; in the test on HOP-62 NSCLC, 6.56 µM; in the test with HOP-92 NSCLC it was 1.84 µM; with KM12 colon, greater than 100 µM; with NCI-H23 lung it was greater than 100 µM; with RXF 393 renal it was 1.69 µM. For the same compound, the values for the TGI with SK-OV-3 ovarian, in the test on SN12C renal and in the test with TK-10 renal were 0.495 µM, greater than 48.3 µM and 0.676 µM, respectively.

As for `O=c1cc(-c2ccccc2)[nH]c2c(S)cccc12`, the TGI in the test on HCC-2998 colon, in the test with HOP-62 NSCLC, in the test with HOP-92 NSCLC, in the test on KM12 colon, in the test with NCI-H23 lung and with RXF 393 renal was greater than 100 µM in each case. Also, the TGI in the test with SK-OV-3 ovarian, in the test with SN12C renal and with TK-10 renal was greater than 100 µM each time.

Turning to `C1CSCCSCCS1`, the total growth inhibition concentration (TGI) in the test on HCC-2998 colon, with HOP-62 NSCLC, with HOP-92 NSCLC, with KM12 colon, in the test with NCI-H23 lung and in the test with RXF 393 renal was greater than 100 µM in each case. Besides, the TGI in the test on SK-OV-3 ovarian, in the test on SN12C renal and in the test on TK-10 renal was greater than 100 µM in each case.
